ChEMBL document CHEMBL1240494, “Radiosynthesis and in vivo evaluation of [(11)C]MC80 for P-glycoprotein imaging” (Bioorg Med Chem, 2010)

Assays:
[1] = Ratio of drug uptake in brain to blood in FVB mouse at 18.5 MBq, iv after 30 mins postinjection; format: ADME, organism-based; conditions: 0.5 h
Liver [2] = assay: Biodistribution in FVB mouse liver at 4.5 MBq, iv; format: ADME, organism-based; conditions: in vivo
[3] = Biodistribution in FVB mouse large intestine at 4.5 MBq, iv after 1 min postinjection; format: ADME, organism-based; conditions: in vivo
Liver [4] = assay: Biodistribution in mdr1a deficient mouse liver at 4.5 MBq, iv after 60 mins postinjection; format: ADME, organism-based; conditions: in vivo, 1 h
Lung [5] = assay: Biodistribution in FVB mouse lung at 4.5 MBq, iv after 1 min postinjection; format: ADME, organism-based; conditions: in vivo
[6] = Ratio of drug uptake in testes to blood in FVB mouse at 18.5 MBq, iv after 30 mins postinjection; format: ADME, organism-based; conditions: in vivo, 0.5 h
Blood = assay: Biodistribution in FVB mouse blood at 4.5 MBq, iv after 1 min postinjection; format: ADME, organism-based; conditions: in vivo
[7] = Ratio of drug uptake in brain to blood in FVB mouse at 18.5 MBq, iv after 1 min postinjection pretreated with cyclosporin A; format: ADME, organism-based
[8] = Partition coefficient, log D of the compound; format: physicochemical; conditions: octanol/water
Brain [9] = assay: Biodistribution in FVB mouse brain at 4.5 MBq, iv after 90 mins postinjection; format: ADME, organism-based; conditions: in vivo, 1.5 h
Brain [10] = assay: Biodistribution in mdr1a deficient mouse brain at 4.5 MBq, iv after 60 mins postinjection; format: ADME, organism-based; conditions: in vivo, 1 h
Kidney [11] = assay: Biodistribution in mdr1a deficient mouse kidney at 4.5 MBq, iv after 60 mins postinjection; format: ADME, organism-based; conditions: in vivo, 1 h
Liver [12] = assay: Biodistribution in FVB mouse liver at 4.5 MBq, iv after 60 mins postinjection pretreated with cyclosporin A; format: ADME, organism-based; conditions: in vivo, 1 h
Kidney [13] = assay: Biodistribution in FVB mouse kidney at 4.5 MBq, iv after 60 mins postinjection pretreated with cyclosporin A; format: ADME, organism-based; conditions: in vivo, 1 h
[14] = Biodistribution in FVB mouse small intestine at 4.5 MBq, iv after 1 min postinjection; format: ADME, organism-based; conditions: in vivo
Heart [15] = assay: Biodistribution in FVB mouse heart at 4.5 MBq, iv after 1 min postinjection; format: ADME, organism-based; conditions: in vivo
[16] = Ratio of drug uptake in brain to blood in FVB mouse at 18.5 MBq, iv after 90 mins postinjection; format: ADME, organism-based; conditions: 1.5 h
[17] = Biodistribution in FVB mouse small intestine at 4.5 MBq, iv after 90 mins postinjection; format: ADME, organism-based; conditions: in vivo, 1.5 h
Pancreas = assay: Biodistribution in FVB mouse pancreas at 4.5 MBq, iv after 60 mins postinjection pretreated with cyclosporin A; format: ADME, organism-based; conditions: in vivo, 1 h
Heart [18] = assay: Biodistribution in mdr1a deficient mouse heart at 4.5 MBq, iv after 60 mins postinjection; format: ADME, organism-based; conditions: in vivo, 1 h
Spleen = assay: Biodistribution in FVB mouse spleen at 4.5 MBq, iv after 60 mins postinjection pretreated with cyclosporin A; format: ADME, organism-based; conditions: in vivo, 1 h
Lung [19] = assay: Biodistribution in mdr1a deficient mouse lung at 4.5 MBq, iv after 1 min postinjection; format: ADME, organism-based; conditions: in vivo
[20] = Biodistribution in FVB mouse large intestine at 4.5 MBq, iv after 90 mins postinjection; format: ADME, organism-based; conditions: in vivo, 1.5 h
[21] = Biodistribution in FVB mouse testes at 4.5 MBq, iv after 60 mins postinjection pretreated with cyclosporin A; format: ADME, organism-based, Testis; conditions: in vivo, 1 h
[22] = Ratio of drug uptake in brain to blood in FVB mouse at 18.5 MBq, iv after 30 mins postinjection pretreated with cyclosporin A; format: ADME, organism-based; conditions: 0.5 h
Brain [23] = assay: Biodistribution in FVB mouse brain at 4.5 MBq, iv after 1 min postinjection; format: ADME, organism-based; conditions: in vivo

With `COc1cc2c(cc1OC)CN(Cc1ccc3cc(O[11CH3])ccc3c1)CC2` the Ratio [1] was 2.17, the Drug uptake (Liver [2]) was 8.71 % ID/g and the Drug uptake [3] was 1.83 % ID/g. For the same compound, the Drug uptake (Liver [4]) was 4.86 % ID/g, the Drug uptake (Lung [5]) was 31.35 % ID/g and the Ratio [6] was 3.04. For the same compound, the Drug uptake (Blood) was 2.56 % ID/g, the Ratio [7] was 2.91 and the logD [8] was 1.96. The Drug uptake (Brain [9]) was 0.9 % ID/g, the Drug uptake (Brain [10]) was 1.09 % ID/g and the Drug uptake (Kidney [11]) was 2.46 % ID/g. The Drug uptake (Liver [12]) was 4.86 % ID/g, the Drug uptake (Kidney [13]) was 2.46 % ID/g and the Drug uptake [14] was 3.89 % ID/g. It also gave a Drug uptake (Heart [15]) of 10.69 % ID/g, a Ratio [16] of 1.05 and a Drug uptake [17] of 11.78 % ID/g. It also gave a Drug uptake (Pancreas) of 6.85 % ID/g, a Drug uptake (Heart [18]) of 10.69 % ID/g and a Drug uptake (Spleen) of 1.52 % ID/g. For the same compound, the Drug uptake (Lung [19]) was 31.35 % ID/g, the Drug uptake [20] was 2.18 % ID/g and the Drug uptake [21] was 2.56 % ID/g. It also gave a Ratio [22] of 1.5 and a Drug uptake (Brain [23]) of 7.66 % ID/g.
